# Laboratory results reported in US20230295197A1, “STAT5 and STAT6 Degraders and Uses Thereof” (REGENTS OF THE UNIVERSITY OF MICHICAN, priority 2022, published 2023).
# Read-outs that look alike come from different tables or passages of the source.
# Biological target: T1, STAT6 (Homo sapiens, UniProt P42226)
# T1 construct: endogenous in cells; host or cells: MOLM-16, KU-812, SKNO1, MB231, L1236
# T1 sequence (P42226 1-847): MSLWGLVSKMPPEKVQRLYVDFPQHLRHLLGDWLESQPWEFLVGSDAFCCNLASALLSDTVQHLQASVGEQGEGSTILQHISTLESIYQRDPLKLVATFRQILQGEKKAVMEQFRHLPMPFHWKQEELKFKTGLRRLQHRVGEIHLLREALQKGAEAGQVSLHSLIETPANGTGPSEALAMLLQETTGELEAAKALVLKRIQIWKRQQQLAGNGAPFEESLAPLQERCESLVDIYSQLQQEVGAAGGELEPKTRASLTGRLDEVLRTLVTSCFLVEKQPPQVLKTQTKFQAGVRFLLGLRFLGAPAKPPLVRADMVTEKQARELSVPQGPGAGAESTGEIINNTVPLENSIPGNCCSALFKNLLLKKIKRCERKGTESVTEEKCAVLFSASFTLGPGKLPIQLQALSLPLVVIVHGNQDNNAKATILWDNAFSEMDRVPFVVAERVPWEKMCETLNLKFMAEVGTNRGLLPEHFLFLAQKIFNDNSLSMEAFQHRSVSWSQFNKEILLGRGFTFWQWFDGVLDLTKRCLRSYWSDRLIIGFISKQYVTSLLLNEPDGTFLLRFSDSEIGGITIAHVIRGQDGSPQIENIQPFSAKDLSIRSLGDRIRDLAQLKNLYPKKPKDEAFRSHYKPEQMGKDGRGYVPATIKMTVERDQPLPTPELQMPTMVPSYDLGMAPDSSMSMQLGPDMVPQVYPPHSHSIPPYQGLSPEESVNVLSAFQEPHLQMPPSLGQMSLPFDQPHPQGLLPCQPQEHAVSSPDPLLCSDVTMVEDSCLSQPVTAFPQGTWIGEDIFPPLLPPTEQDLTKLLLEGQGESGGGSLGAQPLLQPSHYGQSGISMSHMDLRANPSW
# Assay: Immunoblotting (Western blot) analysis of STAT6 degradation efficiency of degraders in treated cells
# Assay type: cell-based
# How it was run: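 Protein levels of STAT5 and STAT6 were assessed in cells cultured at 37 °C in 10% FBS medium after compound exposure, by quantitative fluorescent Western blotting normalised to equal loading and referenced to GAPDH.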
# [1] = MOLM-16 cells, class symbols, read-out: DC50 S6 MOLM-16
# [2] = L1236 cells, read-out: DC50 S6 L1236
DC50 [1] [µM],Compound,DC50 [2] [µM],"DC50 (MB231 cells, read-out: DC50 S6 MB231) [µM]"
> 10,"CC(C)(C)[C@H](NC(=O)c1cc2cc(C(F)(F)P(=O)(O)O)ccc2s1)C(=O)N1C[C@@H](OCC(=O)NCC#Cc2cccc3c2C(=O)N(C2CCC(=O)NC2=O)C3=O)C[C@H]1C(=O)N1CCC[C@H](c2ccccc2)C1 (stereo partly drawn) [Compound 493, ((2-(((2S)-1-((2S,4S)-4-(2-((3-(2-(2,6-dioxopiperidin-3-yl)-1,3-dioxoisoindolin-4-yl)prop-2-yn-1-yl)amino)-2-oxoethoxy)-2-((R)-3-phenylpiperidine-1-carbonyl)pyrrolidin-1-yl)-3,3-dimethyl-1-oxobutan-2-yl)carbamoyl)benzo[b]thiophen-5-yl)difluoromethyl)phosphonic acid]",,
> 10,"CC(C)(C)[C@H](NC(=O)c1cc2cc(C(F)(F)P(=O)(O)O)ccc2s1)C(=O)N1Cc2cc(OCC(=O)NCCC#Cc3ccc4c(c3)C(=O)N(C3CCC(=O)NC3=O)C4=O)ccc2C[C@H]1C(=O)N1CCO[C@H](c2ccccc2)C1 (stereo partly drawn) [Compound 538, ((2-(((2S)-1-((3S)-7-(2-((4-(2-(2,6-dioxopiperidin-3-yl)-1,3-dioxoisoindolin-5-yl)but-3-yn-1-yl)amino)-2-oxoethoxy)-3-((R)-2-phenylmorpholine-4-carbonyl)-3,4-dihydroisoquinolin-2(1H)-yl)-3,3-dimethyl-1-oxobutan-2-yl)carbamoyl)benzo[b]thiophen-5-yl)difluoromethyl)phosphonic acid]",,
> 10,"CC(C)(C)[C@H](NC(=O)c1cc2cc(C(F)(F)P(=O)(O)O)ccc2s1)C(=O)N1C[C@@H](OCC(=O)NCCCCCCCCC#Cc2ccc3c(c2)C(=O)N(C2CCC(=O)NC2=O)C3=O)C[C@H]1C(=O)N1CCO[C@H](c2ccccc2)C1 (stereo partly drawn) [Compound 490, ((2-(((2S)-1-((2S,4S)-4-(2-((10-(2-(2,6-dioxopiperidin-3-yl)-1,3-dioxoisoindolin-5-yl)dec-9-yn-1-yl)amino)-2-oxoethoxy)-2-((R)-2-phenylmorpholine-4-carbonyl)pyrrolidin-1-yl)-3,3-dimethyl-1-oxobutan-2-yl)carbamoyl)benzo[b]thiophen-5-yl)difluoromethyl)phosphonic acid]",,
> 10,"CC(C)(C)[C@H](NC(=O)c1cc2cc(C(F)(F)P(=O)(O)O)ccc2s1)C(=O)N1C[C@@H](OCC(=O)NCCCCCCCCCC#Cc2cccc3c2C(=O)N(C2CCC(=O)NC2=O)C3=O)C[C@H]1C(=O)N1CCC[C@H](c2ccccc2)C1 (stereo partly drawn) [Compound 505, ((2-(((2S)-1-((2S,4S)-4-(2-((11-(2-(2,6-dioxopiperidin-3-yl)-1,3-dioxoisoindolin-4-yl)undec-10-yn-1-yl)amino)-2-oxoethoxy)-2-((R)-3-phenylpiperidine-1-carbonyl)pyrrolidin-1-yl)-3,3-dimethyl-1-oxobutan-2-yl)carbamoyl)benzo[b]thiophen-5-yl)difluoromethyl)phosphonic acid]",,
> 10,"CC(C)(C)[C@H](NC(=O)c1cc2cc(C(F)(F)P(=O)(O)O)ccc2s1)C(=O)N1C[C@@H](OCC(=O)NCCC#Cc2cccc3c2C(=O)N(C2CCC(=O)NC2=O)C3=O)C[C@H]1C(=O)N1CCO[C@H](c2ccccc2)C1 (stereo partly drawn) [Compound 481, ((2-(((2S)-1-((2S,4S)-4-(2-((4-(2-(2,6-dioxopiperidin-3-yl)-1,3-dioxoisoindolin-4-yl)but-3-yn-1-yl)amino)-2-oxoethoxy)-2-((R)-2-phenylmorpholine-4-carbonyl)pyrrolidin-1-yl)-3,3-dimethyl-1-oxobutan-2-yl)carbamoyl)benzo[b]thiophen-5-yl)difluoromethyl)phosphonic acid]",,
> 10,"CC(C)(C)[C@H](NC(=O)c1cc2cc(C(F)(F)P(=O)(O)O)ccc2s1)C(=O)N1C[C@@H](NC(=O)CCCCCC#Cc2ccc3c(c2)CN(C2CCC(=O)NC2=O)C3=O)C[C@H]1C(=O)N1CCO[C@H](c2ccccc2)C1 (stereo partly drawn) [Compound 566, ((2-(((2S)-1-((2S,4S)-4-(8-(2-(2,6-dioxopiperidin-3-yl)-1-oxoisoindolin-5-yl)oct-7-ynamido)-2-((R)-2-phenylmorpholine-4-carbonyl)pyrrolidin-1-yl)-3,3-dimethyl-1-oxobutan-2-yl)carbamoyl)benzo[b]thiophen-5-yl)difluoromethyl)phosphonic acid]",> 10,

# Second part, the molecule before the results:
Compound,DC50 [1] [µM],DC50 [2] [µM],"DC50 (MB231 cells, read-out: DC50 S6 MB231) [µM]"
"Cc1ncsc1-c1ccc([C@H](C)NC(=O)[C@@H]2C[C@@H](O)CN2C(=O)[C@@H](NC(=O)CCCCNC(=O)CC(=O)N2CCN(C(=O)[C@@H](NC(=O)c3cc4cc(C(F)(F)P(=O)(O)O)ccc4s3)C(C)(C)C)[C@H](C(=O)N3CCO[C@H](c4ccccc4)C3)C2)C(C)(C)C)cc1 [Compound 446, (difluoro(2-(((S)-1-((S)-4-(3-((5-(((S)-1-((2S,4R)-4-hydroxy-2-(((S)-1-(4-(4-methylthiazol-5-yl)phenyl)ethyl)carbamoyl)pyrrolidin-1-yl)-3,3-dimethyl-1-oxobutan-2-yl)amino)-5-oxopentyl)amino)-3-oxopropanoyl)-2-((R)-2-phenylmorpholine-4-carbonyl)piperazin-1-yl)-3,3-dimethyl-1-oxobutan-2-yl)carbamoyl)benzo[b]thiophen-5-yl)methyl)phosphonic acid]",> 10,> 10,
"CC(C)(C)[C@H](NC(=O)c1cc2cc(C(F)(F)P(=O)(O)O)ccc2s1)C(=O)N1C[C@@H](OCC(=O)NCC#Cc2ccc3c(c2)C(=O)N(C2CCC(=O)NC2=O)C3=O)C[C@H]1C(=O)N1CCO[C@H](c2ccccc2)C1 (stereo partly drawn) [Compound 480, ((2-(((2S)-1-((2S,4S)-4-(2-((3-(2-(2,6-dioxopiperidin-3-yl)-1,3-dioxoisoindolin-5-yl)prop-2-yn-1-yl)amino)-2-oxoethoxy)-2-((R)-2-phenylmorpholine-4-carbonyl)pyrrolidin-1-yl)-3,3-dimethyl-1-oxobutan-2-yl)carbamoyl)benzo[b]thiophen-5-yl)difluoromethyl)phosphonic acid]",> 10,,
"Cc1ncsc1-c1ccc([C@H](C)NC(=O)[C@@H]2C[C@@H](O)CN2C(=O)[C@@H](NC(=O)CCNC(=O)CO[C@H]2C[C@@H](C(=O)N3CCO[C@H](c4ccccc4)C3)N(C(=O)[C@@H](NC(=O)c3cc4cc(C(F)(F)P(=O)(O)O)ccc4s3)C(C)(C)C)C2)C(C)(C)C)cc1 [Compound 426, (difluoro(2-(((S)-1-((2S,4S)-4-(2-((3-(((S)-1-((2S,4R)-4-hydroxy-2-(((S)-1-(4-(4-methylthiazol-5-yl)phenyl)ethyl)carbamoyl)pyrrolidin-1-yl)-3,3-dimethyl-1-oxobutan-2-yl)amino)-3-oxopropyl)amino)-2-oxoethoxy)-2-((R)-2-phenylmorpholine-4-carbonyl)pyrrolidin-1-yl)-3,3-dimethyl-1-oxobutan-2-yl)carbamoyl)benzo[b]thiophen-5-yl)methyl)phosphonic acid]",> 10,> 10,
"Cc1ncsc1-c1ccc(CNC(=O)[C@@H]2C[C@@H](O)CN2C(=O)[C@@H](NC(=O)CCCCCNC(=O)CO[C@@H]2C[C@@H](C(=O)N(C)c3ccc(Br)cc3)N(C(=O)[C@@H](NC(=O)c3cc4cc(C(F)(F)P(=O)(O)O)ccc4s3)C(C)(C)C)C2)C(C)(C)C)cc1 [Compound 417, ((2-(((S)-1-((2S,4R)-2-((4-bromophenyl)(methyl)carbamoyl)-4-(2-((6-(((S)-1-((2S,4R)-4-hydroxy-2-((4-(4-methylthiazol-5-yl)benzyl)carbamoyl)pyrrolidin-1-yl)-3,3-dimethyl-1-oxobutan-2-yl)amino)-6-oxohexyl)amino)-2-oxoethoxy)pyrrolidin-1-yl)-3,3-dimethyl-1-oxobutan-2-yl)carbamoyl)benzo[b]thiophen-5-yl)difluoromethyl)phosphonic acid]",,> 10,> 10
"CC(C)(C)[C@H](NC(=O)c1cc2cc(C(F)(F)P(=O)(O)O)ccc2s1)C(=O)N1CCN(C(=O)CC(=O)NCCCC#Cc2cccc3c2C(=O)N(C2CCC(=O)NC2=O)C3=O)C[C@H]1C(=O)N1CCC[C@H](c2ccccc2)C1 (stereo partly drawn) [Compound 525, ((2-(((2S)-1-((2S)-4-(3-((5-(2-(2,6-dioxopiperidin-3-yl)-1,3-dioxoisoindolin-4-yl)pent-4-yn-1-yl)amino)-3-oxopropanoyl)-2-((R)-3-phenylpiperidine-1-carbonyl)piperazin-1-yl)-3,3-dimethyl-1-oxobutan-2-yl)carbamoyl)benzo[b]thiophen-5-yl)difluoromethyl)phosphonic acid]",> 10,,
